Data published in patent US20140099354A1, “BIOPASSIVATING MEMBRANE STABILIZATION BY MEANS OF NITROCARBOXYLIC ACID-CONTAINING PHOSPHOLIPIDS IN PREPARATIONS AND COATINGS” (priority 2011, published 2014).

Columns and labels:
[1] = Abrasion stability and traction work load of coated balloon catheters; type: physicochemical
Description: Balloon catheters were coated by means of the Langmuir-Schaefer procedure where the balloon segment was aligned longitudinally and coaxial to the solution surface, dipping into the liquid for approx. 1 mm over the entire length. Then the catheter was slowly rotated around its axis 5 times. Phospholipids were dissolved at a concentration of 3 mmol in an ion-free aqueous solution at 50° C. The solution was cooled and given to the coating solution then. In case of incomplete dissolution of the phospholipids or if they separated when cooled, DMSO was added at a concentration of up to 20 vol.-%, preferably up to 10 vol.-%. After coating, the catheters were vacuum dried for 8 hours in order to remove residual solvent.
The tubing was filled with a 10% human albumin solution at a temperature of 35° C. The cable system, which had previously been brought through the tubing was connected to the catheter tip and tracked outside the tubing by reversing pulleys, which allowed exactly vertically traction of the cable that was connected to a motorized winch. The winch was mounted on a digital precision balance. The catheters mounted in this manner were pulled through the tubing system and the weight changes measured by the balance, which represented the traction work load achieved for the passage of the catheter, was recorded continuously. These readings were integrated over time. The resultant values allow estimation of the total shear force that occurred during the passage of the catheter through the tubing system.

[2] = test system: TRPV1, 2 and 4, TRPA1; assay: Inducible ion current of TRP receptors in Xenopus oocytes (voltage clamp); type: cell-based, rat; conditions: 50 mmol/l, 10 and 60 minutes
Description: An established in-vitro model of Xenopus oocytes (Dascal N, 1987 The use of Xenopus oocytes. CRC critical reviews in biochemistry 22, 317-387) was used to study the influence of incubation with PL on ion channels regulated by membrane receptors. Defolliculized oocytes were transfected with cRNA (rat) of TRPV1, 2 and 4, as well as of TRPA1, stored in tissue culture plates and incubated in culture medium (ND 96) at 15° C. under constant motion in the incubator for 7 to 10 days.
Induced leakage currents through activation of the TRP receptors was determined by means of double electrode voltage-clamp technique (Ahern G P, Brooks I M, Miyares R L &Wang X B, 2005, Extracellular cations sensitize and gate capsaicin receptor TRPV1 modulating pain signalling. J Neurosci 25, 5109-5116). Ooocytes were probed with borosilicate glass capillaries (Clark) and connected to a feedback amplifier (Gene clamp Amplifier, Axon instruments). The membrane potential of oocytes was clamped to −60 or −90 mV. The presence of a directive […] current was compared to non-transfected controls. The investigations were performed in a miniature organ bath in calcium-free buffered (Hepes, pH 7.3) NaCl solution. The TRPV1 receptor excitation was initiated by rapidly changing of the bath solution against a capsaicin solution (10 μmol). Results of non-pretreated oocytes were used for normative comparison of subsequent measurements of incubatesd cells. Investigations with incubated cells were carried out in the same way for oocytes transfected with the TRPV2, and TRPV4 and TRPA1 receptors, wherein the receptor agonists cannabidiol (10 μmol) and 4α-PDD (4α-phorbol 12,13-didecanoate, 50 μmol) and innamaldehyde (50 μmol) were used instead of capsaicin.

[3] = Tissue response to coated silicone implants in vivo after bleomycin; parameters: species or system Wistar rats; conditions: silicone cushions, subcutaneous, 7 to 90 days
Description: Induction of fibrotic tissue production by connective tissue activation as a consequence of implantation of foreign material was examined in an in-vivo animal model. As implant materials, sterile silicone cushions having a diameter of 1 cm were used.
In male Wistar rats (190-240 g) that were fed and housed under identical conditions for one week, general anaesthesia was performed by intramuscular injection of 0.008 mL/100 g ketamine and 0.004 mL/100 g xylocaln chloride 2%. Then the back of the animals was shaved, sterilized and infiltrated with xylocalne chloride. A paravertebral incision was made on both sides with a length of 1.5 cm followed by preparation of the subcutaneous tissue, so that on both sides approx. 2×2 cm cavities were preformed. Hemostasis was achieved by cauterization, if necessary. Then balls of cotton saturated with Bleomycin (cell-pharm GmbH, Hannover, Germany: 1% in 0.9% NaCl solution) were inserted into the cavities for 3 minutes and then removed. Without rinsing the cavities, the implants coated with a nitrated phospholipid were inserted into the cavity on the left side and the implants coated with natural phospholipid into the cavity on the right side. Thereafter, a layer by layer wound closure was performed and a sterile adhesive bandage was applied.
The animals were kept according to standard conditions for 7, 14, 30, 60 and 90 days. At any study time endpoint, two animals were euthanized. After death the well visible and palpable implants were removed using en-block resection technique. The resected specimens were fixed and embedded in paraffin. Then they were cut in half and the liquid silicone was removed. The specimens were embedded again and cut into thin slices which were stained with H & E and Sirius red, and evaluated by light microscopy. Evaluation was done according to the following criteria:
A1: none; A2: occasional monocytic cells or lymphocytes; A3: moderate numbers or groups of monocytic cells or lymphocytes; A4: dense infiltration of monocytes, eosinophils, or giant cells.
B1: none; B2: collagen-rich layer around the implant; B3: thick (>1 mm) and dense collagen-rich tissue formation around the implant.
In every 10th serial section 10 fields of view uniformly distributed over the circumference of the implant were evaluated and the herein predominant expression was assigned to an event table. In total, 200 fields of view were analyzed per implant

[4] = test system: sciatic nerve; assay: Viability of cryopreserved nerve grafts (Annexin-V staining, FACS); type: cell-based, rats; conditions: 100 mmolar solution 1 hour, −30° C. 72 hours
Description: The sciatic nerve was prepared and sectured in anesthetized rats. The nerve pieces were freed from connective tissue and divided into 3 parts. Specimens were placed in culture DMEM medium containing low a concentration of glucose (1 g/L) with L-glutamine (PAA, Pasching Austria) for 24 hours. […] Nerve specimens from the same animals that received no pretreatment served as controls. After incubation, the specimens were cultured for 24 hours. In a further control group, specimens were cryopreserved without any pretreatment. The specimens were covered with a sterile gauze pad moistened with culture medium. Thereafter the temperature was gradually cooled to −30° C. After 72 hours, the nerve pieces were gradually rewarmed to 37° C. After this, renewed culturing was done for 48 hours. The nerve pieces were dissected enzymatically then (collagenase A and D, Roche, Mannheim, Germany) followed by a mechanical separation through multiple uptake and release in a glass pipette. The isolated cells were washed and marked with a living/death staining (Annexin-V-Fluos staining Kit, Roche Diagnostics, Mannheim, Germany) and quantified using FACS analysis. The number of living cells identified was set in relation to the total cells count.

[5] = test system: ovarian tissue strips; assay: Cryopreservation of ovarian tissue strips: intact follicles; conditions: liquid nitrogen 14 days, cultured 14 days
Description: Ovar ectomy was performed in female sheep; resected tissues were cut into 60 ovarian tissue strips. The ovarian strips were either cultured directly (n=4) or prepared with a usual solution for vitrification (VS group; Vitrification Kit, Sage, USA) or incubated with nitrated PLs (NPL group). For this purpose, the tissue strips were bathed in an equibrilation solution (ART-8025-A) which consisted of MOPS-buffered amino acids and gentamicin sulfate (10 mg/l), and 7.5% (v/v) of each DMSO and ethylene glycol and 12 mg/ml human serum albumin for 30 minutes. Thereafter the strips of the VS group were placed in the vitrification solution (ART-8025-B), which is a MOPS-buffered solution containing amino acids and gentamicin sulfate, that contain 15% (v/v) each DMSO and ethylenglycol, 12 mg/ml human albumin and 0.6 M sucrose. The strips of the NPL group were placed in a solution containing 25% (v/v) nitrated PL SNOPC or PNLPC in a PBS-buffered 1% DMSO solution containing 5% human albumin for 60 minutes. The treated tissue strips were then immersed into liquid nitrogen and kept here for 14 days. Then removal and warming of the tissue pieces was performed in AIM-V medium (Gibco, Invitrogen) in a sterile culture dish, first up to 5° C. within 20 minutes, then heated further in a water bath up to 37° C., within the following 60 minutes. The culture medium was replaced and specimens cultured for 14 days. After this, the tissue pieces were fixed, embedded in paraffin and cut, followed by histological examination. […] The total number of intact follicles in the control group was taken as a reference to the number of follicles in the cryopreserved groups.
The culture medium has been exchanged by every 2nd day; samples for hormone analysis were taken and frozen at that time. Determination of 17 β-estradiol and progesterone were performed with a radio-immuno assay (diagnostic systems laboratories, USA).

[6] = Transisomerization of unsaturated fatty acids in coatings on balloon catheters (FTIR); type: physicochemical; conditions: for proportion of trans-fatty acids: after heat treatment (60° C., three hours)
Excerpt: The natural phospholipids POPC and SLPE, as well as the analogous nitrated phospholipids as shown in example C(PNOPC) and […]), as well as the phospholipids according to examples […], and S as a mono substance and as a combination of the native phospholipids and the corresponding nitro-carboxylic acid (s)-containing phospholipids mixed in a ratio of 1:1 were used for this investigation. Balloon catheters were coated by means of the Langmuir-Schaefer procedure where the balloon segment was aligned longitudinally and coaxial to the solution surface, dipping into the liquid for approx. 1 mm over the entire length. Then the catheter was slowly rotated around its axis 5 times. […] The solution was cooled and given to the coating solution then. In case of incomplete dissolution of the phospholipids or if they separated when cooled, DMSO was added at a concentration of up to 20 vol.-%, preferably up to 10 vol.-%. After coating, the catheters were vacuum dried for 8 hours in order to remove residual solvent. The abrasion or loss of coating layers was determined by weighing the catheter before and after coating as well as after the mechanical stability test in the tubing system as described above using a high precision balance. In order to examine the long-term stability of the coating, catheters coated with phospholipids were sealed with polyethylene glycol 1000 (Roth, Germany). For that purpose PEG 1000 was melted and mixed with a 10% ethanol solution at 50° C. A portion of the phospholipid-coated balloon catheter was coated by means of dip-coating in this PEG solution at 50° C., and dried thereafter for 8 hours. Stability of cis-conformity of unsaturated fatty acids of the phospholipids investigated was determined after heat treatment at 60° C. for three hours in a heating cabinet. After 24 hours and after 2 months the phospholipids coated on the balloon surface were detached and analyzed. Detachment was carried out in 50 ml of a chloroform:methanol mixture (3:1, v: v). A 10 μl aliquot was used for a FTIR spectroscopy. For this purpose the samples were dropped on a ZnSe ATR crystal and then the solvent was evaporated. Degree of transisomerization was determined using the integral of intensity of proton resonance in comparison to that measured from a cis configuration of the reference substances. Measurements were performed 24 hours after coating, heat treatment and after 2 months of storage at 25° C. under sterile room air conditions.

[7] = test system: cortical neurons; assay: Hypoxia and reperfusion of cortical neurons (viability, LDH); conditions: neurons and cardiac myocytes; 10 to 50 μmol/l
Description: To determine whether the membrane-stabilizing properties of nitrated phospholipids can lead to attenuation of effects due to an ischemic event or the re-perfusion damage, cortical neurons and cardiac myocytes were investigated.
Freshly prepared cortex tissue was separated with Papain and tissue suspensions were cultured in culture vessels (Prim ARA; BD Biosciences, USA) with Neurobasal A/B27 medium (Invitrogen) for 10-12 days. Cell suspensions were divided, and replenished with suspensions of the natural phospholipids SOPC and PLPC, as well as the analogue phospholipids with nitration of unsaturated fatty acids (1-stearoyl-2-(9-nitrooleoyl)-sn-PC and 1-palmitoyl-2-(9-nitrolinoleoyl)-sn-PC) at concentrations of 10 to 50 μmol/l in NaCl (0.9%) were added. […] After 4 hours, the cells were washed three times with buffered saline and buffered NaCl solution with the addition of MgCl2 and CaCl2 in an anaerobic atmosphere (85% N2, 5% O2, 10% CO2; at 35° C.) for 10 and 30 minutes. Then, the cells were washed once and grown in culture medium under aerobic conditions for 24 hours. […] Cells were stained with annexin V-FITC and propidium iodide (Molecular probes, USA). The vital and necrotic cells were measured by flow cytometry (FACSCalibur, Becton & Dickinson). The volume of culture medium was determined and an aliquot was taken for determination of the LDH (lactate dehydrogenase) concentration.

[8] = test system: HeLa, HUVEC and L929 fibroblast; assay: cells; type: cell-based
Description: Physiologically occurring phospholipids can be taken up by virtually all cell lines in large quantities. It is known that phospholipids that contain non-physiologically occurring fatty acid residues can cause cell lyses or death. Three cell lines (HeLa, HUVEC and L929 fibroblast) were cultured in a suitable culture medium of 5% FCS at 37° C. and 5% CO2 concentrations to a subconfluent concentration of 1.5×10^5 cells.
SOPC, DOPC, POPC, ONOPC, PNLPC, and the free fatty acids of OA, LA, NOOA, and NOLA were dissolved in 0.5% DMSO. […] Cell cultures were incubated for 24 h and 48 h. Thereafter, the culture medium was removed and the cells washed twice. Following this, cells suspensions were given in four vials to perform the following analysis:
For the determination of viability, phenol red was added to the suspended cells. After 4 h, the medium was renewed and 10 μl of the MTT solution was added. The cells were cultured for 4 hours, and then a 10% SDS solution was pipetted. After 24 h, absorption of formazan crystals was measured at 500 nm using a power wave X (bio-tek instruments, Inc., USA). For the quantitative comparison of toxicity, the EC50 was determined.

[9] = top coating with PEG, after 2 month

## CCCCCCCCC=C(CCCCCCCC(=O)OC[C@H](COP(=O)(O)OC[C@H](N)C(=O)O)OC(=O)CCCCCCCC(=CCCCCCCCC)[N+](=O)[O-])[N+](=O)[O-] [Example E, 1,2-di-(9-nitrooleoyl)-sn-3-glycerophosphatidylserine]
[1]
  mechanical removal of coating substance and workload to pull the catheter through PTFE tubing: Very similar results
[2]
  inducible membrane channel activity of TRP channels: significant decrease of inducible membrane channel activity

## 1-stearoyl-2-(10-nitrolinoleoyl)-sn-3-glycerophosphocholine and 1-stearoyl-2-(9-nitrolinoleoyl)-sn-3-glycerophosphocholine [Example P2]
[1]
  mechanical removal of coating substance and workload to pull the catheter through PTFE tubing: Very similar results
[3]
  biocompatibility of coated implants compared to natural PLs: improved biocompatibility of implants several-fold
[4]
  proportion of living cells relative to non-frozen control: 82%
[5]
  rate of intact follicles relative to the control group: 85%

## CCCCCCCC/C=C(\CCCCCCCC(=O)OC[C@H](COP(=O)(O)O)OC(=O)CCCCCCC/C(=C\CCCCCCCC)[N+](=O)[O-])[N+](=O)[O-] [Example G, 1,2-di-(9-nitrooleoyl)-sn-3-glycerophosphate]
[1]
  mechanical removal of coating substance and workload to pull the catheter through PTFE tubing: Very similar results
[3]
  biocompatibility of coated implants compared to natural PLs: improved biocompatibility of implants several-fold

## 1,2-di-(9-nitrolinoleoyl)-sn-3-glycerophosphocholine, 1,2-di-(10-nitrolinoleoyl)-sn-3-glycerophosphocholine, 1-(9-nitrolinoleoyl)-2-(10-nitrolinoleoyl)-sn-3-glycerophosphocholine and 1-(10-nitrolinoleoyl)-2-(9-nitrolinoleoyl)-sn-3-glycerophosphocholine [Example N1]
[1]
  mechanical removal of coating substance and workload to pull the catheter through PTFE tubing: Very similar results
[5]
  rate of intact follicles relative to the control group: 93%

## CCCCCCCC/C=C(\CCCCCCCC(=O)O[C@H](COC(=O)CCCCCCCCCCCCCCC)COP(=O)([O-])OCC[N+](C)(C)C)[N+](=O)[O-] [Example P8, 1-palmitoyl-2-(E-9-nitrooleoyl)-sn-3-glycerophosphocholine]
[2]
  inducible membrane channel activity of TRP channels: significant decrease of inducible membrane channel activity
[5]
  rate of intact follicles relative to the control group: 96%

## CCCCCCCC/C=C(\CCCCCCCC(=O)O[C@H](COC(=O)CCCCCCCCCCCCCCC)COP(=O)([O-])OCC[N+](C)(C)C)[N+](=O)[O-] [Example C, (E)-1-Palmitoyl-2-(9-nitrooleoyl)-sn-3-glycerophosphocholine]
[6]
  proportion of trans-fatty acids: 25%
[6]; coatings after 2 months
  degree of transisomerization: 30%
[6]; [9]
  degree of transisomerization: 32%
[7]
  results of the hypoxia experiments compared with reference nitrated phospholipids: did not show relevant differences

## 1,2-di-(9-nitrolinoleoyl)-sn-3-glycerophosphocholine, 1,2-di-(10-nitrolinoleoyl)-sn-3-glycerophosphocholine, 1-(9-nitrolinoleoyl)-2-(10-nitrolinoleoyl)-sn-3-glycerophosphocholine and 1-(10-nitrolinoleoyl)-2-(9-nitrolinoleoyl)-sn-3-glycerophosphocholine [Example N8]
[3]
  biocompatibility of coated implants compared to natural PLs: improved biocompatibility of implants several-fold

## CCCCC/C=C\C/C=C(\CCCCCCCC(=O)O[C@H](COC(=O)CCCCCCCCCCCCCCCCC)COP(=O)(O)OCCN)[N+](=O)[O-] [Example R, 1-Stearoyl-2-(E-9-nitrolinoleoyl)-sn-3-glycerophosphatidylethanolamine]
[6]
  proportion of trans-fatty acids: 28%
[6]; coatings after 2 months
  degree of transisomerization: 32%
[6]; [9]
  degree of transisomerization: 33%
[3]
  biocompatibility of coated implants compared to natural PLs: improved biocompatibility of implants several-fold
[4]
  proportion of living cells relative to non-frozen control: 75%
[4]; listed as SNLPE
  proportion of living cells relative to non-frozen control: 80%

## CCCCCCCCC(O)C(CCCCCCCC(=O)OC[C@H](COP(=O)([O-])OCC[N+](C)(C)C)OC(=O)CCCCCCCC(C(O)CCCCCCCC)[N+](=O)[O-])[N+](=O)[O-] (some centres unmarked) [Example O1, 1,2-di-(9-nitro-10-hydroxy-stearoyl)-sn-3-glycerophosphocholine]
[1]
  mechanical removal of coating substance and workload to pull the catheter through PTFE tubing: Very similar results
[7]
  results of the hypoxia experiments compared with reference nitrated phospholipids: slightly worse results

## 1-(5,8,11-eicosatrienoyl)-2-(9-nitro-α-linolenoyl)-sn-3-glycerophosphocholine and 1-(5,8,11-eicosatrienoyl)-2-(10-nitro-α-linolenoyl)-sn-3-glycerophosphocholine [Example P5]
[1]
  mechanical removal of coating substance and workload to pull the catheter through PTFE tubing: Very similar results
[5]
  rate of intact follicles relative to the control group: 90%

## CCCCC/C=C\C/C=C\CCCCCCCC(=O)O[C@H](COC(=O)CCCCCCCCCCCCCCCCC)COP(=O)(O)OCCN [SLPE, 1-Stearoyl-2-linoleoyl-sn-3-glycero-phosphatidylethanolamine, reference compound]
[6]
  proportion of trans-fatty acids: 86%
[6]; coatings after 2 months
  degree of transisomerization: 98%
[6]; [9]
  degree of transisomerization: 92%
[4]
  proportion of living cells relative to non-frozen control: 15%

## CC/C=C(\C/C=C\C/C=C\CCCCCCCC(=O)O[C@H](COC(=O)CCCCCCC/C=C\C/C=C\CCCCC)COP(=O)([O-])OCC[N+](C)(C)C)[N+](=O)[O-] [Example P12, 1-linoleoyl-2-(E-15-nitro-α-linolenoyl)-sn-3-glycerophosphocholine]
[3]
  biocompatibility of coated implants compared to natural PLs: improved biocompatibility of implants several-fold
[5]
  rate of intact follicles relative to the control group: 91%

## CCCCCCCC/C=C\CCCCCCCC(=O)OC[C@H](COP(=O)([O-])OCC[N+](C)(C)C)OC(=O)CCCCCCC/C(=C\CCCCCCCC)[N+](=O)[O-] [Example P15, 1-oleoyl-2-(E-9-nitrooleoyl)-sn-3-glycerophosphocholine]
[8]
  total viability (MTT assay): 83%
[8]; after 48 hours, range over cell lines, read-out: EC50 (MTT assay)
  EC50: 0.8 to 5 mM
